# Data published in patent US11000515B2, “Compounds that interact with the Ras superfamily for the treatment of cancers, inflammatory diseases, rasopathies, and fibrotic disease” (Shy Therapeutics LLC, priority 2017, dated 2021).
# Where two headings read alike, the source gives them in different places.
# Assays:
# [1] = test system: MAPK phosphorylation in the PANC-1 pancreatic cancer cell line; assay: MAPK cell-based phosphorylation assay (cell-direct ELISA, EGF-stimulated PANC-1); conditions: Homo sapiens; for inhibition at 30 µM: PANC-1, 6 hours incubation, EGF stimulation; for inhibition at 10 µM: tested at 10 μM (*), PANC-1
# Experimental: Cell lines: Tumor-derived pancreatic cancer cell lines PANC-1 were purchased from ATCC and were maintained according to ATCC recommendation.
# Method: Cells were plated at 7500 cells/well density in 96-wells plate, starved over night, and the small molecules to be tested were added to the cells in the final concentration of 30 μM with 0.3% DMSO for 6 hours incubation at 37° C. For IC50 value determination, serial dilutions of compounds were added to cells under the same conditions. Next, cells were stimulated with 1.5 ng/ml EGF for 15 min. followed by cell fixation with 4% Formaldehyde in PBS at RT for 20 min. Phosphorylation level of MAPK was determined by Cell-direct ELISA.
# Cell-direct ELISA: For each well, cells were permeabilized with PBS-Triton 0.1%, quenched with H2O2 0.6% in PBS-Triton 0.1%, and probed with anti-phospho-MAPK antibodies (R&D Systems) followed by HRP-conjugated secondary antibody (Jackson Immunoresearch, West Grove, Pa.). Next, a solution 50 μM of the fluorescent substrate AmpliFlu Red (Sigma) was added and incubated at RT for 20 min. At the end of the incubation time, fluorescence was measured at 595 nm on a microplate reader (AF2200; Eppendorf, Inc., Hamburg, Germany).
# [2] = test system: MIA-PACA2 pancreatic cancer cell lines; assay: Cell proliferation assay, MIA-PACA2 (CellTiter 96 AQueous One, 6 days); format: cell-based; conditions: Homo sapiens, MIA PaCa-2, 144 h
# Experimental: (§1) Cell lines: Tumor-derived pancreatic cancer cell lines MIA-PACA2 were purchased from ATCC and grown in complete DMEM-High Glucose medium supplemented with penicillin (100 U/mL), streptomycin (100 μg/mL), and 10% heat-inactivated FBS at 37° C. in a humidified incubator with 5% CO2.
# Method: Cells are plated at 1000 cells/well density in 96-wells plate, starved ON, and the next day tested small molecules are added to the cells in the final concentration of 30 μM with 0.3% DMSO 3 hours prior to 10% FBS addition. After serum addition cells are incubated for 6 days at 37° C. in a humidified incubator with 5% CO2. For IC50 value determination, serial dilutions of compounds were added to cells under the same conditions.
# Assay: At the end of the incubation period, cell cultures are tested using the CellTiter 96® AQueous One Solution Cell Proliferation Assay kit (Promega Corporation, Madison, Wis.) according to the manufacturer specifications. Briefly, assay is performed by adding 20 μl of the CellTiter 96 Aqueous One Solution Reagent directly to culture wells, followed by for 1-4 hours incubation at 37° C. in a humidified incubator with 5% CO2. At the end of incubation time, absorbance at 492 nm is recorded with the 96-well plate reader Eppendorf AF2200, and degree of small molecule-dependent proliferation inhibition is calculated from raw data assuming No Serum cells value as 100%.
# [3] = test system: MIA-PACA2 pancreatic cancer cell lines; assay: Cell proliferation assay, MIA-PACA2, alternate assay conditions (DAPI staining, 4 days); format: cell-based; conditions: Homo sapiens; for inhibition at 10 µM: MIA PaCa-2, 96 h, tested at 10 μM (*), 4 days, alternate conditions
# Experimental: as §1
# Method: Cells are plated at 4000 cells/well density in 96-wells plate. The next day tested small molecules are added to the cells in the final concentration of 10 μM in the presence of 0.3% DMSO and 10% FBS. After small molecules addition, cells are incubated for 4 days at 37° C. in a humidified incubator with 5% CO2. For IC50 value determination, serial dilutions of compounds were added to cells under the same conditions.
# Assay: At the end of the incubation period, cell cultures are fixed with a 50-50 mixture (v/v) acetone-methanol for 10 minutes at −20° C., followed by rehydration in PBS for 10 minutes at room temperature. After rehydration, cells are stained with DAPI (1 μg/ml) in PBS for 10 minutes at room temperature, followed by 3 washes with PBS. After staining, DAPI fluorescence is recorded (358 nm excitation/461 nm emission) with the 96-well plate reader Molecular Devices Spectramax M3; degree of small mole-cule-dependent proliferation inhibition is calculated from raw data assuming No Serum cells value as 100%.
# [4] = molecular target: KRas G12C/Q61H double mutant (Homo sapiens (Human), UniProt P01116, G12C/Q61H); assay: Ras GTP binding domain inhibition assay (labeled GTP)
# Experimental: (§2) Buffer-I: • 50 mM Tris, pH 7.5 • 150 mM NaCl (optional) • 1 mM MgCl2 • 1 mM DTT. • KRas G12D mutant protein was expressed as a His-tagged protein. Purified His-KRas G12D protein was diluted in buffer-I to a final concentration of 3-10 μg/ml. • 200 μl of the diluted His-KRas G12D protein was added to a nickel coated 96 well plate and incubated overnight at 4° C. • The next day, wells were washed 3× in 200 μl of Buffer-I. • Then 200 μl of Buffer-I were added to each well in the presence of 1% DMSO. • Tested compounds were added to the protein-coated wells at a concentration of 20 μM, and incubated for 3 hours at room temperature. While performing IC50 measurements a serial dilution of all tested concentrations was prepared.
# (§3) Then 22 μl of Cy3-GTP or Cy5-GTP was added to each well. The labeled GTP was incubated for 45 min. at room temperature. • Following GTP incubation, wells were washed 3× in Buffer-I, and 200 μl of Buffer-I were added to each well. • Following washes, the amount of bound labeled-GTP was measured with an Eppendorf AF2200 plate reader.
# (§4) By substituting KRas G12D mutant protein with KRas G12C mutant, KRas wild type, KRas Q61H mutant, KRas G12D/Q61H double mutant or KRas G12C/Q61H double mutant under the assay conditions described above, KRas G12C mutant KRas wild type, KRas Q61H mutant, KRas G12D/Q61H double mutant and KRas G12C/Q61H double mutant inhibition, respectively, were each determined.
# KRas G12D mutant protein = KRas G12D mutant protein (Homo sapiens (Human), UniProt P01116, G12D); assay: as above
# Experimental: The following method was developed as specific assay for KRas G12D mutant protein.
# as §2, §3
# KRas Q61H mutant = KRas Q61H mutant (Homo sapiens (Human), UniProt P01116, Q61H); assay: as above
# Experimental: as §2, §3, §4
# [5] = molecular target: KRas G12D/Q61H double mutant (Homo sapiens (Human), UniProt P01116, G12D/Q61H); assay: as above
# Experimental: as §2, §3, §4
# KRas G12C mutant = KRas G12C mutant (Homo sapiens (Human), UniProt P01116, G12C); assay: as above
# Experimental: as §2, §3, §4
# KRas wild type = KRas wild type (Homo sapiens (Human), UniProt P01116); assay: as above
# Experimental: as §2, §3, §4
# Rho-A = Rho-A (Homo sapiens (Human), UniProt P61586); assay: Rac and Rho inhibition assay (labeled GTP); format: binding; conditions: read-out: Rho-A % Inh.
# Rac-1 = Rac-1 (Homo sapiens (Human), UniProt P63000); assay: Rac and Rho inhibition assay (labeled GTP); format: binding; conditions: read-out: Rac-1 % Inh.
# [6] = compound at 20 μM, read-out: % Inhibition at 20 μM, KRas G12D Q61H
# [7] = 20 μM compound, read-out: % Inhibition at 20 μM, KRas G12D Q61H
# KRas G12C/Q61H double mutant, sequence (P01116-2 other isoform, or with tags, fused parts or gaps G12C/Q61H): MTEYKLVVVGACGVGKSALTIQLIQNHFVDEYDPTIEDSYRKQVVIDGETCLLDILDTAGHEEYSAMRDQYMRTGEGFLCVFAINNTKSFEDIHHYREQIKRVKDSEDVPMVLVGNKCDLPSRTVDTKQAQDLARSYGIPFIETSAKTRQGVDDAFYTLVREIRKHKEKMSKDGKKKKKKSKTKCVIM
# KRas wild type, sequence (P01116-2 other isoform, or with tags, fused parts or gaps): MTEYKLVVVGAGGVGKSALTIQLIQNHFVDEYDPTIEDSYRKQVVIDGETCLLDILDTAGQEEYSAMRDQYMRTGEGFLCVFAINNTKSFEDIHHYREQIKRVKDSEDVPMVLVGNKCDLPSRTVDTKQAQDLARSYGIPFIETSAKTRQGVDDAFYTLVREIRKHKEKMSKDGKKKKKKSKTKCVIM
# KRas G12C mutant, sequence (P01116-2 other isoform, or with tags, fused parts or gaps G12C): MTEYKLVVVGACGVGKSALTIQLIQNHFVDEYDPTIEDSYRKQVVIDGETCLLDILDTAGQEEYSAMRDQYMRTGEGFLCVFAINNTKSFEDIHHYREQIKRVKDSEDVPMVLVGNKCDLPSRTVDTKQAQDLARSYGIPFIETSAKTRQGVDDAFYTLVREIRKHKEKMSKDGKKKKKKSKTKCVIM
# KRas G12D/Q61H double mutant, sequence (P01116-2 other isoform, or with tags, fused parts or gaps G12D/Q61H): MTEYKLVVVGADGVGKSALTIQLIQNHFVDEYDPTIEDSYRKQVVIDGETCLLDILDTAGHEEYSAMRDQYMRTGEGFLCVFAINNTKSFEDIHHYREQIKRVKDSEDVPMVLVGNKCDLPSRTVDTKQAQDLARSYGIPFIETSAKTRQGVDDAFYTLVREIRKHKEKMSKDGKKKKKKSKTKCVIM
# KRas Q61H mutant, sequence (P01116-2 other isoform, or with tags, fused parts or gaps Q61H): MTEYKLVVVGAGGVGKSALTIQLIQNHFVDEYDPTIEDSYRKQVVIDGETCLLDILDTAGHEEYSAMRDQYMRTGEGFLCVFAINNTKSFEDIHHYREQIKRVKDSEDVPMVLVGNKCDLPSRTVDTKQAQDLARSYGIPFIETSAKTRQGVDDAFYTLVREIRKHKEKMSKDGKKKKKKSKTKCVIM
# KRas G12D mutant protein, sequence (P01116-2 other isoform, or with tags, fused parts or gaps G12D): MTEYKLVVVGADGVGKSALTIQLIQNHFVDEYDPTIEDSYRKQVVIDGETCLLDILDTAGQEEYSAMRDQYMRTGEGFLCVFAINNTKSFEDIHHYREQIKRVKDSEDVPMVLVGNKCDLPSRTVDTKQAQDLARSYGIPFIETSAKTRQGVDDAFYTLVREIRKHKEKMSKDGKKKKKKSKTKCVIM
# Rho-A, sequence (P61586 whole entry): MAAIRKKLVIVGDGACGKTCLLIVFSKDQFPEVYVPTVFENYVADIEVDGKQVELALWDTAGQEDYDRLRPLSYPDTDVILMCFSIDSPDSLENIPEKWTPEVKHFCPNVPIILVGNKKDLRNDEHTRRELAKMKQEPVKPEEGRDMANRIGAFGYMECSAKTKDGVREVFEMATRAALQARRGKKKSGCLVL
structure (smiles),measurement,setting,value
Cc1nc(-c2ccccn2)nc(O)c1CCC(=O)Nc1ccc(C(C)C)cc1,inhibition at 30 µM,[1],1 to 25%
COC(=O)c1cc(NCc2nc(CC(C)C)no2)ccc1Cl,inhibition at 30 µM,[1],1 to 25%
N#Cc1ccc(CC(=O)Nc2ccnc(-c3ccccn3)n2)cc1,inhibition at 30 µM,[1],1 to 25%
COOCCCCNC(=O)c1csc2nc(-c3ccccn3)nc(N3CCOCC3)c12,inhibition at 30 µM,[1],1 to 25%
Oc1nc(-c2ccccn2)nc2c(-c3ccccn3)csc12,inhibition at 10 µM,[1],76 to 100%
COc1ccc(CCC(=O)Nc2nc(-c3ccccn3)nc3sccc23)cn1,inhibition at 10 µM,[1],76 to 100%
Cn1ccnc1-c1nc(O)c2scc(-c3cccc(OC(F)(F)F)c3)c2n1,inhibition at 10 µM,[1],25 to 50%
O=C(Nc1nnc(-c2ccccn2)[nH]1)c1ccc(Cc2ccccc2)nc1,inhibition at 30 µM,[2],51 to 75%
OCCn1ncc2c1CCCC2Nc1nc(-c2ccccn2)nc2scc(-c3ccccc3)c12 (stereo not shown),inhibition at 30 µM,[2],76 to 100%
CN(CCCc1n[nH]c(N)c1C#N)c1nc(-c2ccccn2)nc2sc(-c3ccccc3)cc12,inhibition at 30 µM,[2],76 to 100%
NC(=O)C1CCN(c2nc(-c3ccccn3)nc3scc(-c4ccccc4)c23)CC1,inhibition at 30 µM,[2],76 to 100%
COc1cnc(CN)[nH]c1=O,inhibition at 30 µM,[2],51 to 75%
O=C(CCn1ccnc1)Nc1nc(-c2ccccn2)nc2sccc12,inhibition at 30 µM,[2],76 to 100%
Oc1cccc(-c2csc3c(O)nc(-c4ccccn4)nc23)n1,inhibition at 10 µM,[3],76 to 100%
COCC(C)Nc1nc(-c2ncccn2)nc2sc(-c3ccncc3)c(-c3ccccc3)c12 (stereo not shown),inhibition at 10 µM,[3],51 to 75%
Cc1cccc(-c2c(-c3ccccc3)sc3c(O)nc(-c4nccn4C)nc23)c1,inhibition at 10 µM,[3],25 to 50%
COc1ccc(-c2c(-c3ccccc3)sc3c(O)nc(-c4cccn4C)nc23)cn1,inhibition at 10 µM,[3],76 to 100%
same,IC50,"[3]; MIA PaCa-2, same assay as % inhibition: alternate conditions",501 to 1000 nM
O=C(NCCc1cncs1)c1csc2nc(-c3ccccn3)nc(N3CCOCC3)c12,inhibition at 20 µM,[4]; compound at 20 μM,1 to 25%
Oc1nc(-c2ccccn2)nc2ccsc12,inhibition at 20 µM,KRas G12D mutant protein; compound at 20 μM,1 to 25%
same,inhibition at 20 µM,KRas Q61H mutant; compound at 20 μM,51 to 75%
same,inhibition at 20 µM,[5]; [6],25 to 50%
same,inhibition at 20 µM,KRas G12C mutant; compound at 20 μM,25 to 50%
same,inhibition at 20 µM,[4]; compound at 20 μM,25 to 50%
same,inhibition at 20 µM,KRas wild type; compound at 20 μM,1 to 25%
CN(C)COc1ccc(-c2csc3c(O)nc(-c4ccccn4)nc23)cn1,inhibition at 20 µM,KRas G12D mutant protein; compound at 20 μM,51 to 75%
same,inhibition at 20 µM,KRas Q61H mutant; compound at 20 μM,51 to 75%
same,inhibition at 20 µM,[5]; [6],51 to 75%
same,inhibition at 20 µM,KRas G12C mutant; compound at 20 μM,51 to 75%
same,inhibition at 20 µM,[4]; compound at 20 μM,51 to 75%
same,inhibition at 20 µM,KRas wild type; compound at 20 μM,51 to 75%
O=C(CCC1N=NN=N1)Nc1nc(-c2ccccn2)nc2sccc12,inhibition at 20 µM,KRas G12D mutant protein; compound at 20 μM,51 to 75%
same,inhibition at 20 µM,KRas Q61H mutant; compound at 20 μM,51 to 75%
same,inhibition at 20 µM,[5]; [6],51 to 75%
same,inhibition at 20 µM,KRas G12C mutant; compound at 20 μM,25 to 50%
same,inhibition at 20 µM,[4]; compound at 20 μM,51 to 75%
same,inhibition at 20 µM,KRas wild type; compound at 20 μM,51 to 75%
COc1nc(-c2ccccn2)nc2c(C)c(C(=O)N3CCN(c4ccccc4)CC3)sc12,inhibition at 20 µM,KRas Q61H mutant; 20 μM compound,51 to 75%
same,inhibition at 20 µM,[5]; [7],51 to 75%
same,inhibition at 20 µM,[4]; 20 μM compound,51 to 75%
COc1cnc(CNC(=O)c2csc3nc(-c4ccccn4)nc(N)c23)[nH]c1=O,inhibition at 20 µM,KRas Q61H mutant; 20 μM compound,25 to 50%
same,inhibition at 20 µM,[4]; 20 μM compound,25 to 50%
OC[C@H]1O[C@@H](c2csc3c2N=C(c2ccccn2)NC3O)[C@H](O)[C@@H]1O (stereo partly shown),inhibition at 20 µM,KRas G12D mutant protein; 20 μM compound,25 to 50%
same,inhibition at 20 µM,KRas Q61H mutant; 20 μM compound,51 to 75%
same,inhibition at 20 µM,[5]; [7],25 to 50%
same,inhibition at 20 µM,KRas G12C mutant; 20 μM compound,51 to 75%
same,inhibition at 20 µM,[4]; 20 μM compound,25 to 50%
same,inhibition at 20 µM,KRas wild type; 20 μM compound,25 to 50%
Cn1cnc(-c2nc(O)c3c(C4C=CC=CC4)c(-c4ccncc4)sc3n2)c1 (stereo not shown),inhibition at 20 µM,KRas Q61H mutant; 20 μM compound,1 to 25%
same,inhibition at 20 µM,[5]; [7],1 to 25%
same,inhibition at 20 µM,[4]; 20 μM compound,1 to 25%
COc1ccnc(-c2nc(O)c3c(C#N)csc3n2)c1,inhibition at 20 µM,Rho-A,25 to 50%
same,inhibition at 20 µM,Rac-1,51 to 75%
COC1CN=C(CNC(=O)c2cc3nc(-c4ccccn4)nc(O)c3s2)NC1=O (stereo not shown),inhibition at 20 µM,Rho-A,51 to 75%
same,inhibition at 20 µM,Rac-1,51 to 75%
same,inhibition at 20 µM,"[5]; at 20 μM, read-out: KRas Gl2D Q61H % Inh.",25 to 50%
COc1ccc(COC[C@H]2O[C@@H](c3csc4c(=O)[nH]c(-c5ccccn5)nc34)[C@H](O)[C@@H]2O)cc1,inhibition at 20 µM,Rho-A,76 to 100%
same,inhibition at 20 µM,Rac-1,51 to 75%
CCC(C)c1csc2c(O)nc(-c3ccccn3)nc12 (stereo not shown) [drawing 3492],inhibition at 20 µM,KRas G12D mutant protein; 20 μM compound,25 to 50%
same,inhibition at 20 µM,KRas Q61H mutant; 20 μM compound,51 to 75%
same,inhibition at 20 µM,[5]; [7],51 to 75%
same,inhibition at 20 µM,KRas G12C mutant; 20 μM compound,25 to 50%
same,inhibition at 20 µM,[4]; 20 μM compound,51 to 75%
same,inhibition at 20 µM,KRas wild type; 20 μM compound,25 to 50%
